In PubChem BioAssay AID624112 (National Center for Advancing Translational Sciences (NCATS), 2012) one finds solubility, percent remaining data, which are given here for 1 compound.

This data set has as its system Aqueous solubility in PBS, percent remaining. The data set is described as follows: qHTS Assay for Inhibitors of Bacillus subtilis Sfp phosphopantetheinyl transferase (PPTase): Aqueous Solubility in PBS. The note with it: active compounds read high. An excerpt: The covalent attachment of a phosphopantetheinyl (4'-PP) arm to a variety of synthases and other proteins is a key posttranslational protein modification. The 4'-PP is installed on the proteins post-translationally from coenzyme A (CoA) on a conserved serine residue by action of phosphopantetheinyl transferase (PPTase) enzymes. Phosphopantetheinylation is essential for synthase activity, and removal of the PPTase gene precludes natural product synthesis in microorganisms, or in the case of fatty acid biosynthesis, renders the organism unviable. PPTase enzymes belong to a distinct structural superfamily. Within bacteria, these enzymes are grouped into two classes based upon primary structure, the AcpS-Type and Sfp-Type PPTases.
Sfp-type PPTases, corresponding to an activator of surfactin production in Bacillus subtilis, are responsible for modifying type I polyketide and nonribosomal peptide synthases of prokaryotes. Sfp-type PPTases are responsible for the activation of a variety of pathogen-associated virulence factors. […]
2microM of compound is incubated in PBS buffer at pH 7; the reference compound is procaine. Compounds are incubated at 37 deg C for the pre-determined time periods and the when aliquots are removed. Samples are analyzed with LC-MS/MS.
Background: qHTS replaces the single test concentration by a dilution series.

Molecules are shown by their SMILES.

As for `COc1ccnc(NC(=S)N2CCN(c3ncc(C(F)(F)F)cc3Cl)CC2)c1`, the solubility, percent remaining is 100%.
